Experiment [1] deals with rice YX6 mutant (OE-HIR1). The experiment can be described thus: Herbicide spraying of plants, YX6 mutant. The experiment is classed as in vivo. The settings on record: for rank order of resistance of the YX6 mutant (OE-HIR1) to different herbicides: comparison among herbicides sprayed. The text has this:
(§1) In this study, the base editor mediates genetic transformation through Agrobacterium, and the recipient variety was Nipponbare (NIP). After obtaining TO transgenic plants, the genotype of the target site was identified by PCR and sequencing, and the mutant individuals were transplanted to the field and T1 generation seeds were harvested. In order to verify the resistance of the mutant to herbicides, the harvested T1 generation seeds were dehulled, disinfected, and then inoculated on ½ MS medium with different HPPD herbicides. We selected the herbicide isoxaflutole, and the final concentration was set to 400 nM, while the tolerance concentration of wild-type Nipponbare rice to isoxaflutole during the seed germination stage was about 100 nM. Seed germination and seedling growth status were observed and counted 10 days after inoculation. […] To further confirm its resistance, we transplanted the green seedlings of YX6 into the greenhouse and sprayed them with 100 μM isoxaflutole one month later. The tolerance concentration of wild-type Nipponbare rice to isoxaflutole during the seedling stage was about 40 μM.
(§2) To further confirm the relationship between gene LOC_Os02g09720 and the herbicide isoxaflutole, we designed two different sgRNA targets in the coding region of gene LOC_Os02g09720 and knocked out the gene using CRISPR/Cas9 in the wild-type Nipponbare rice and YX6 resistant rice backgrounds. After obtaining TO transgenic plants, the two target regions were sequenced, and homozygous knockout plants were selected and sprayed with herbicides together with wild-type plants and YX6 resistant plants. The concentration of isoxaflutole was set to 40 μM. The phenotype was observed two weeks later. […] We named this gene HIR1 (HPPD INHIBITOR RESISTANCE 1), and its encoded protein is HIR1 protein. The amino acid sequence is shown in SEQ ID No.1. The genotype of the wild-type Nipponbare plant is HIR1, and the knockout plant is hir1.
(§3) In order to further determine the resistance strength of rice YX6 mutant (OE-HIR1), we set up three high concentration gradients of isoxaflutole to spray it (200 μM, 400 μM, 800 µM), with wild-type Nipponbare plants (HIR1) and wild-type Nipponbare HIR1 gene knockout plants (hir1) as controls. […] The tolerance range of rice YX6 mutant (OE-HIR1) to isoxaflutole may be higher, even reaching 1200-1500 μM, while the tolerance concentration of wild-type Nipponbare plants to isoxaflutole was about 40 μM, and its resistance is estimated to be increased by 30 times.
(§4) HPPD herbicides mainly include triketones, pyrazolones, isoxazolones, diketonitriles, and benzophenones. In order to determine whether the rice YX6 mutant (OE-HIR1) is resistant to other HPPD herbicides, we selected the herbicides: mesotrione, tembotrione, an unlisted quinotrione-methyl analog (Y13287), topramezone, and pyrasulfotole, and sprayed them with wild-type Nipponbare rice as the control.

The test system of experiment [2] is wild-type Nipponbare plants (HIR1). The experiment can be described thus: Herbicide spraying of plants, wild-type Nipponbare. The experiment is classed as in vivo, rice.
Excerpt: as §1, §2, §3, §4

Experiment [3] deals with resistant plant YX6 HIR1 knockout plant hir1 (YX6). The experiment can be described thus: Herbicide spraying of plants, HIR1 knockout in YX6 background. Type of experiment: in vivo, rice. The settings on record: 40 μM spray, two weeks later, LOC_Os02g09720 knockout in YX6 background.
Excerpt: as §2

Experiment [4] concerns transgenic plants (ZmHIR1) in rice variety Xiushui 134. The experiment can be described thus: Herbicide spraying of T0 transgenic seedlings overexpressing ZmHIR1. Type of experiment: in vivo. Conditions: 50 mg/L (139 μM) spray. As for the experimental part: (§5) Verifying the herbicide resistance of the above two genes (ZmHIR1 and SqHIR1): cloning these two genes, respectively, and overexpressing them in the rice variety Xiushui 134. The TO generation transgenic seedlings were sprayed with 50 mg/L (139 μM) herbicide isoxaflutole for resistance identification, and the results are shown in FIGS. 10-11.

For experiment [5], the system named is transgenic plants (SqHIR1) in rice variety Xiushui 134. Kind of experiment: Herbicide spraying of T0 transgenic seedlings overexpressing SqHIR1. The settings on record: 50 mg/L (139 μM) spray. Type of experiment: in vivo. As for the experimental part: as §5
In experiment [6] the test system is transgenic plant numbered YX6 (T1 generation seeds). The experiment can be described thus: Seed germination on ½ MS medium with isoxaflutole, YX6 T1 seeds. The experiment is classed as in vivo, rice. The settings on record: 400 nM in ½ MS medium, 10 days after inoculation.
Excerpt: as §1

For experiment [7], the system named is wild-type (WT) rice plants, variety Xiushui 134. The experiment can be described thus: Herbicide spraying for resistance identification, wild-type Xiushui 134. Type of experiment: in vivo. The settings on record: 50 mg/L (139 μM) spray. As for the experimental part:
as §5

The subject of experiment [8] is wild-type Nipponbare rice. Kind of experiment: Seed germination on ½ MS medium with isoxaflutole, wild-type Nipponbare. Type of experiment: in vivo.
Excerpt: as §1

Experiment [9] deals with wild-type Nipponbare HIR1 knockout plant hir1 (NIP). Kind of experiment: Herbicide spraying of plants, HIR1 knockout in wild-type background. Type of experiment: in vivo, rice. Conditions: 40 μM spray, two weeks later, LOC_Os02g09720 knockout in wild-type background.
Excerpt: as §2

Setting [10] is: 400 μM spray, YX6 mutant (OE-HIR1).

The values below come from patent US20250250581A1, “HERBICIDE-RESISTANT POLYPEPTIDE AND APPLICATION THEREOF” (SHANDONG SHUNFENG BIOTECHNOLOGY CO.LTD., priority 2022, published 2025).

Turning to `CS(=O)(=O)c1ccc(C(=O)C2C(=O)CCCC2=O)c([N+](=O)[O-])c1` [mesotrione], the phenotype after spraying entry in experiment [1] (setting [10]) is “had no phytotoxicity and could grow normally without bleaching”; in experiment [2] (400 μM spray, wild-type plants), “had all bleached and suffered certain phytotoxicity”. Further, the “rank order of resistance of the YX6 mutant (OE-HIR1) to different herbicides” value (shortened to “rank order … to different herbicides”) in experiment [1] is “sulfone pyrazone>topramezone≈tembotrione>mesotrione≈quinotrione-methyl analog”.
With `Cc1c(C(=O)c2cnn(C)c2O)ccc(S(C)(=O)=O)c1C1=NOCC1` [topramezone], the phenotype after spraying entry is “had no phytotoxicity and could grow normally without bleaching” in experiment [1] (setting [10]); “had all bleached and suffered certain phytotoxicity” in experiment [2] (400 μM spray, wild-type plants). Further, the “rank order … to different herbicides” value in [1] is listed as “sulfone pyrazone>topramezone≈tembotrione>mesotrione≈quinotrione-methyl analog”.
For `CS(=O)(=O)c1cc(C(F)(F)F)ccc1C(=O)c1cnoc1C1CC1` [isoxaflutole], the phenotype after spraying entry is “bleached, withered, and died gradually” in experiment [3]; “not affected and grew normally” in experiment [1] (40 μM spray, two weeks later, YX6 plants); “not affected at all” in [1] (100 μM spray, after two weeks, YX6); “could still grow normally” in [1] (800 μM spray, YX6 mutant (OE-HIR1)); “basically remain green, with normal plant height and good growth status” in [4]; “basically remained green, with normal plant height and good growth status” in experiment [5]. For the same compound, the phenotype after spraying result was “bleaching and wilting, but still survived” in experiment [2] (40 μM spray, two weeks later, wild-type plants); “completely bleached and withered” in experiment [2] (100 μM spray, after two weeks, wild-type Nipponbare); “become dwarfed, yellow, and dry” in [7]; “bleached, withered, and died gradually” in [9]. Besides, the “resistance increase versus wild-type Nipponbare” value in experiment [1] (YX6 mutant (OE-HIR1) vs wild type tolerance about 40 μM, estimated) is recorded as roughly 30 times. In addition, in experiment [1] (YX6 mutant (OE-HIR1), 'may be higher, even reaching'), the tolerance range lay within 1200 to 1500 µM. Besides, the “seed germination and seedling growth status” value in [6] was “seedlings remained green normally”; in experiment [8] (400 nM in ½ MS medium, 10 days after inoculation, wild-type Nipponbare) it was “obvious bleaching symptoms of phytotoxicity”. The “tolerance concentration during the seedling stage” value in [2] (wild-type Nipponbare, spraying) is reported as “about 40 μM”. Also, in experiment [8] (wild-type Nipponbare rice, seed germination stage), the “tolerance concentration during the seed germination stage” value was “about 100 nM”.
Turning to `Cc1nn(C)c(O)c1C(=O)c1ccc(C(F)(F)F)cc1S(C)(=O)=O` [pyrasulfotole], the phenotype after spraying entry in experiment [1] (setting [10]) is “had no phytotoxicity and could grow normally without bleaching”; in experiment [2] (400 μM spray, wild-type plants), “had all bleached and suffered certain phytotoxicity”. The “rank order … to different herbicides” value in [1] was “sulfone pyrazone>topramezone≈tembotrione>mesotrione≈quinotrione-methyl analog”.
For the compound `CS(=O)(=O)c1ccc(C(=O)C2C(=O)CCCC2=O)c(Cl)c1COCC(F)(F)F` [tembotrione], the phenotype after spraying result is “had no phytotoxicity and could grow normally without bleaching” in experiment [1] (setting [10]); “had all bleached and suffered certain phytotoxicity” in [2] (400 μM spray, wild-type plants). Also, the “rank order … to different herbicides” value in experiment [1] is on record as “sulfone pyrazone>topramezone≈tembotrione>mesotrione≈quinotrione-methyl analog”.
